Source: PMC3445516 (PLoS ONE, 2012)
Like-named read-outs stand apart in the source and are kept apart here.

Assays:
Test in all cases: Ambit kinase profiling, competition binding
SNARK = target: T1, SNARK (Homo sapiens, UniProt Q9H093); conditions: for % Competition: 10 µM
T1 construct: purchased Ambit Biosciences (KINOMEscan)
T1 sequence (Q9H093 1-628): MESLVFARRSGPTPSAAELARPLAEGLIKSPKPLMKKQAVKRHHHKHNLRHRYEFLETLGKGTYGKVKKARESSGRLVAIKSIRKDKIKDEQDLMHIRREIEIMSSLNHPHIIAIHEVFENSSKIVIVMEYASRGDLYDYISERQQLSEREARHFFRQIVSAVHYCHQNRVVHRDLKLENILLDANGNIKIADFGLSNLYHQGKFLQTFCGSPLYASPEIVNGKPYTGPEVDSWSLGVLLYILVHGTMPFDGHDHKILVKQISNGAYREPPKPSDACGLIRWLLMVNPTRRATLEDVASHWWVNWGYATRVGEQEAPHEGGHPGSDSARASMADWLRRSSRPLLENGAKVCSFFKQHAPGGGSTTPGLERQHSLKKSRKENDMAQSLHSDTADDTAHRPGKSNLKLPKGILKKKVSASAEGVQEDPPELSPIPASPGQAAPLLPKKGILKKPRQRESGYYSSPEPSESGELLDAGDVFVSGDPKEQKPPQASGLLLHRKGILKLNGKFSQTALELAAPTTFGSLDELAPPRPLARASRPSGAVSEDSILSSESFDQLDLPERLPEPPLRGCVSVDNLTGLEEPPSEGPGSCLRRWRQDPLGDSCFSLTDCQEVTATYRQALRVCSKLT
Method: (§1) Also included in the kinase profile are four isoforms of PKC (δ, ε, η, θ) and eight isoforms of CAMKs (CAMKIα, δ, γ; CAMKIIα, β, δ, γ; CAMK4).
(§2) The global kinase profiling experiment was performed by Ambit Biosciences.

CSNK1G2 = target: T2, CSNK1G2 (Homo sapiens, UniProt P78368); conditions: for % Competition: 10 µM
T2 construct: purchased Ambit Biosciences (KINOMEscan)
Method: as §1, §2

ROCK2 = target: T3, ROCK2 (Homo sapiens, UniProt O75116)
T3 construct: purchased Ambit Biosciences (KINOMEscan)
Method: as §1, §2

RIPK4 = target: T4, RIPK4 (Homo sapiens, UniProt P57078)
T4 construct: purchased Ambit Biosciences (KINOMEscan)
T4 sequence (P57078 1-832): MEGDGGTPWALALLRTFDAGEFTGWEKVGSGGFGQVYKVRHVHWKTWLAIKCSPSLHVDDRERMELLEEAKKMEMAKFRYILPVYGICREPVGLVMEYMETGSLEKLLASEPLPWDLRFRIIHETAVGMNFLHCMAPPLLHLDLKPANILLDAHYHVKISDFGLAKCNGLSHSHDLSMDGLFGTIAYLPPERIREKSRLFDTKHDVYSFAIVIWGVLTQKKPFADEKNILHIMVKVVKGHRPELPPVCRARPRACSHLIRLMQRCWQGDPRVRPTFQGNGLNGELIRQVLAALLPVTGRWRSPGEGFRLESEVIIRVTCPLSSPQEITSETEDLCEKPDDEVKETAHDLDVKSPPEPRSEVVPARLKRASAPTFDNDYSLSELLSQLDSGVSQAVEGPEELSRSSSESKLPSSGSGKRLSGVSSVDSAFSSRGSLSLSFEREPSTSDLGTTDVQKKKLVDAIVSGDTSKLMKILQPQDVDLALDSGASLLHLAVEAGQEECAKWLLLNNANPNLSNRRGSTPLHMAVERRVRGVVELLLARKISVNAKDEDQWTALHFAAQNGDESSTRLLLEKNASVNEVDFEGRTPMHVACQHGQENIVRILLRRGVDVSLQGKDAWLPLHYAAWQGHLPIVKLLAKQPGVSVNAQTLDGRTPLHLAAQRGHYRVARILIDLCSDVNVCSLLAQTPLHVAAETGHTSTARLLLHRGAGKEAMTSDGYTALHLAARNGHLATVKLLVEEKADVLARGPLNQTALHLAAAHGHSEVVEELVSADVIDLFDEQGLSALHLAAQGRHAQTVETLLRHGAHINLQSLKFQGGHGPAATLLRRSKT
Method: as §1, §2

EGFR(L747-T751del,Sins) = test system: EGFR(L747-T751del,Sins); parameters: species or system human; conditions: for % Competition: 10 µM
Method: as §1, §2

PKCδ = PKCδ (Homo sapiens, UniProt Q05655); parameters: purchased Ambit Biosciences (KINOMEscan); conditions: for competition: PKC δ, 10 µM
Method: as §1, §2

Chain of PKCδ (Q05655 whole entry): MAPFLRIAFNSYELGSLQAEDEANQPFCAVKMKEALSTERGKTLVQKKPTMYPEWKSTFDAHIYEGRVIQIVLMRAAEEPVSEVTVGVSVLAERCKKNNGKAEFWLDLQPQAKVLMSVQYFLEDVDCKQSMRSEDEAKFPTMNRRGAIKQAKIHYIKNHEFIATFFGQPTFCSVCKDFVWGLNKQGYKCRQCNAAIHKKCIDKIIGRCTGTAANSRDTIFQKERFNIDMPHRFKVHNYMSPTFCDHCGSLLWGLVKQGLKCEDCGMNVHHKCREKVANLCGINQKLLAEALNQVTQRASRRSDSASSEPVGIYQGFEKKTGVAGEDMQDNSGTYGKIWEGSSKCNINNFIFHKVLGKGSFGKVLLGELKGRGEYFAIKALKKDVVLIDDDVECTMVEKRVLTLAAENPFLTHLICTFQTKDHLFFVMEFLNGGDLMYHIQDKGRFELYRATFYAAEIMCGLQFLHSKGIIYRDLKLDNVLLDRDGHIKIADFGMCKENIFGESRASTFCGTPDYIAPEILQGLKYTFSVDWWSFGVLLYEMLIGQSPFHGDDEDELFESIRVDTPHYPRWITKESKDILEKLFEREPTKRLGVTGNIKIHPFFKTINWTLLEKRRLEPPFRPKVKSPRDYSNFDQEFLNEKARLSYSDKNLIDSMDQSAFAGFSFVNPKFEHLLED
T3 sequence (O75116 whole entry): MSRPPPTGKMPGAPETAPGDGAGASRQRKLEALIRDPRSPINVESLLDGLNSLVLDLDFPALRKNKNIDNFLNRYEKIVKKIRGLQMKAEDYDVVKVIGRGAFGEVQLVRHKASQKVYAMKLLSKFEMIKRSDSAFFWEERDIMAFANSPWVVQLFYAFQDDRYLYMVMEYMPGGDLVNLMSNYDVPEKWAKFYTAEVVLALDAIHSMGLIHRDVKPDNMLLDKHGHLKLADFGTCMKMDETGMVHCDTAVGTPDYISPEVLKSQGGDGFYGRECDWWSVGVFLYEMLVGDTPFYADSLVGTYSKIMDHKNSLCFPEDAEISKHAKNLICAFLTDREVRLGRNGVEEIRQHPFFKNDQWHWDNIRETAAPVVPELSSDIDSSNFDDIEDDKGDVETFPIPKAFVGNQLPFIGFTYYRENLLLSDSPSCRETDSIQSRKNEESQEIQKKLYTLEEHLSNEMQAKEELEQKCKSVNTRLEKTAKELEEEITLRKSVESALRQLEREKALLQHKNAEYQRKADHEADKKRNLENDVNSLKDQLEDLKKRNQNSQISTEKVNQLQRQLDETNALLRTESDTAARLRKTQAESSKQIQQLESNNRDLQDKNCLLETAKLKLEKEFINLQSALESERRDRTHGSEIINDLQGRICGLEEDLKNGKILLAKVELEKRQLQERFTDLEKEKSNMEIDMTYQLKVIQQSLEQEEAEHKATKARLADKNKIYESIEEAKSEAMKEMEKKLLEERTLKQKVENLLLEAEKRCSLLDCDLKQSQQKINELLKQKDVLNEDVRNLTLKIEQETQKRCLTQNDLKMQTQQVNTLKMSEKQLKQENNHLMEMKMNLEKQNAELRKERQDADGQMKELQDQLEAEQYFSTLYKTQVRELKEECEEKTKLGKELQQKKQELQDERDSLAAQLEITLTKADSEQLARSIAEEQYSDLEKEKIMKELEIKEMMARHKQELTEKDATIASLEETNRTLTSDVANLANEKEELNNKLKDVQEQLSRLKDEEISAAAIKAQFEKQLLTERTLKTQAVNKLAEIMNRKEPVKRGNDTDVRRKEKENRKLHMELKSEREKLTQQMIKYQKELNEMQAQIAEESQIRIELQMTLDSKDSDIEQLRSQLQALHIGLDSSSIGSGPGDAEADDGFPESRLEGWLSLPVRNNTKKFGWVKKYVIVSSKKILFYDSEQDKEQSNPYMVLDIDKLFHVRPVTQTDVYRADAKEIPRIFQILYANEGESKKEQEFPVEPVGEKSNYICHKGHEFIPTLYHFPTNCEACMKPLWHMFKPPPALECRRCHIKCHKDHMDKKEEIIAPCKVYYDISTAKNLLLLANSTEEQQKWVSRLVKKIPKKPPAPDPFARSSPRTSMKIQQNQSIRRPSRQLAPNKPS
T2 sequence (P78368 whole entry): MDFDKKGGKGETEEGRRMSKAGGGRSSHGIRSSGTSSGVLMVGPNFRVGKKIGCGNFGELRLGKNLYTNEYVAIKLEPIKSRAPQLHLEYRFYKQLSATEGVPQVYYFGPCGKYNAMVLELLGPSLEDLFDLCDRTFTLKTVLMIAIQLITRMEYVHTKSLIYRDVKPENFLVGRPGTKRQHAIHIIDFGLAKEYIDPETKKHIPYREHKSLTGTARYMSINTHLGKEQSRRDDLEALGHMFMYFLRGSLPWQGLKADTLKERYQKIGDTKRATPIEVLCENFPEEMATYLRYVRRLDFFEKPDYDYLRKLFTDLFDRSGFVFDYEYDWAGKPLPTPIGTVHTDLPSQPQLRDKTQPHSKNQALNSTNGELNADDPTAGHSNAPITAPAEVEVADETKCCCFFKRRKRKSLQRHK

| Percent Competition (SNARK; compound concentration 10 uM) [%] | Percent Competition (CSNK1G2; compound concentration 10 uM) [%] | inhibition at 10 µM (ROCK2; ROCK2, compound concentration 10 uM, read-out: Percent Competition) [%] | inhibition at 10 µM (RIPK4; RIPK4, compound concentration 10 uM, read-out: Percent Competition) [%] | Percent Competition (EGFR(L747-T751del,Sins); compound concentration 10 uM) [%] | inhibition at 10 µM (PKCδ; PRKCD, compound concentration 10 uM, read-out: Percent Competition) [%] | inhibition at 10 µM (ROCK2; ROCK2, 10 µM, read-out: % Competition) [%] | inhibition at 10 µM (RIPK4; RIPK4, 10 µM, read-out: % Competition) [%] | SMILES | % Competition (SNARK) [%] | % Competition (CSNK1G2) [%] | % Competition (EGFR(L747-T751del,Sins)) [%] | competition (PKCδ) [%] | inhibition at 10 µM (ROCK2; read-out: % Competition) [%] | inhibition at 10 µM (RIPK4; read-out: % Competition) [%] |
| --- | --- | --- | --- | --- | --- | --- | --- | --- | --- | --- | --- | --- | --- | --- |
| 89 | 82 | 89 | 76 | 97 | < 50 |  |  | Fc1ccc(-c2c(-c3ccncc3)[nH]c3nccnc23)cc1 [RO1155697-000-005] |  |  |  |  |  |  |
|  |  |  |  |  |  | 89 | 76 | Fc1ccc(-c2c(-c3ccncc3)[nH]c3nccnc23)cc1 [Compound 122] | 89 | 82 | 97 | < 50 |  |  |
|  |  |  |  |  |  |  |  | CC(O)CNc1cc(-c2[nH]c3cccnc3c2-c2ccc(F)cc2)ccn1 (stereo not drawn) [Compound 140] | <50 | 89 | 90 | < 50 | < 50 | < 50 |
